Measured values from US20110257176A1, “NITROGEN HETEROCYCLE DERIVATIVES AS PROTEASOME MODULATORS” (INSTITUT NATIONAL DE LA SANTE ET DE LA RECHERCHE MEDICALE …, priority 2008, published 2011).
Where a SMILES comes first, the peptide text is derived from it. The star is where a group is joined. Cbz = O=C(OCc1ccccc1)*

What was measured:
[1] = system: rabbit reticulocyte 20S proteasome, trypsin-like (T-L) activity; test: 20S proteasome trypsin-like (T-L) activity, Boc-LRR-AMC hydrolysis; format: biochemical; set-up: key to Inhibition of trypsin-like activity (NI): NI: No Inhibition; settings: rabbit 20S proteasome; for Inhibition of trypsin-like activity (NI): screened at 100 μM and 50 μM
Protocol: (§1) Rabbit erythrocyte 20S proteasome was obtained from Boston Biochem, Cambridge, USA. The fluorogenic substrates Suc-LLVY-AMC, Boc-LRR-AMC and Z-LLE-βNA used to measure the proteasome activities CT-L, T-L and PA respectively were purchased from Bachem (France). Other reagents and solvents were purchased from commercial sources. Fluorescence was measured using a BMG Fluostar microplate reader.
(§2) Compounds 1-23 were tested for their potential to inhibit the CT-L, T-L and PA activities of the rabbit reticulocyte 20S proteasome. Enzyme activities were determined by monitoring the hydrolysis of the appropriate fluorogenic substrate (λexc=360, λem=465 nm for AMC substrates, and λexc=340, λem=405 nm for the βNA substrate) for 1 h at 37° C.
(§3) In the in vitro screening, each compound was tested in duplicate against the three activities, at 100 μM and 50 μM in the corresponding buffer. The buffer were (pH 8): 50 mM Tris, 150 mM NaCl, 10% (v/v) glycerol, 0.025% (w/v) SDS, and 3% (v/v) DMSO (CT-L and PA activities); 50 mM Tris, 150 mM NaCl, 10% (v/v) glycerol, and 3% (v/v) DMSO (T-L activity).
(§4) The inhibitory activity of compounds is expressed as IC50, which corresponds to the concentration of proteasome inhibitor leading to a loss of activity of 50%. The values of IC50 were calculated by fitting the experimental data to equation 1: % Inhibition=100×(1−Vi/V0)=100 [I]0/(IC50+[I]0), or equation 2: % Inhibition=100 [I]0^nH/(IC50^nH+[I]0^nH), where Vi is the initial rate in the presence of the inhibitor, V0 is the initial rate in the absence of the inhibitor, [I]0 is the inhibitor concentration, nH is the Hill number (FIG. 1).

[2] = target: T1, rabbit reticulocyte 20S proteasome, chymotrypsin-like (CT-L) activity (UniProt G1T4Q9); test: 20S proteasome chymotrypsin-like (CT-L) activity, Suc-LLVY-AMC hydrolysis; format: biochemical; settings: rabbit 20S proteasome, pH 8, 37° C.
T1 construct: IC50 on chymotrypsin-like activity; other: rabbit 20S proteasome, pH 8, 37° C; Rabbit erythrocyte 20S proteasome was obtained from Boston Biochem, Cambridge, USA
Protocol: as §1, §2, §3, §4

[3] = target: rabbit reticulocyte 20S proteasome, post-acid (PA) activity (Oryctolagus cuniculus, UniProt G1T235); test: 20S proteasome post-acid (PA) activity, Z-LLE-βNA hydrolysis; format: biochemical; set-up: key to Inhibition of post-acid activity (NI): NI: No Inhibition; settings: rabbit 20S proteasome; for Inhibition of post-acid activity (NI): screened at 100 μM and 50 μM
Protocol: as §1, §2, §3, §4

[4] = target: T2, human calpain-I (Homo sapiens, UniProt P07384); test: Selectivity: inhibition of calpain-I; format: biochemical; settings: 100 μM compound
T2 sequence (P07384 1-714): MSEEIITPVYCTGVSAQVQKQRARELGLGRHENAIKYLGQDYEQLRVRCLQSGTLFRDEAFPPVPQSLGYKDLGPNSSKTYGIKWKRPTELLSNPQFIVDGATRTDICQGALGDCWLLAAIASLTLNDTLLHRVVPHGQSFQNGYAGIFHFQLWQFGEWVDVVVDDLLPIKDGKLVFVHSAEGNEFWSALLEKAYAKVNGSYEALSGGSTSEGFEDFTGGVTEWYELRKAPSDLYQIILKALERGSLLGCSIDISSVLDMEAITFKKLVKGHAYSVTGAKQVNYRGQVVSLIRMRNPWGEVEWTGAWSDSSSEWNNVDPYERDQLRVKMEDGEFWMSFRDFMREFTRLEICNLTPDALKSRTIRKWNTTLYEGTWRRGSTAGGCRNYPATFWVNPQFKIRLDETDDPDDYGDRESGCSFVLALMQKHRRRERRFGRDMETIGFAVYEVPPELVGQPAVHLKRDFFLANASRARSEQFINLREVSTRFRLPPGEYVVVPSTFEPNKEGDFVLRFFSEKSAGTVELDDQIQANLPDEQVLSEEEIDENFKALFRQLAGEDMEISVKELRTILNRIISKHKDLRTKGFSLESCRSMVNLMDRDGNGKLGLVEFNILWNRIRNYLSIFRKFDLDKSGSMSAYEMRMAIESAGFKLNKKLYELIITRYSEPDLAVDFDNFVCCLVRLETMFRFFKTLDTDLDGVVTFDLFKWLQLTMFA
T2 sequence (P04632 1-268 partner): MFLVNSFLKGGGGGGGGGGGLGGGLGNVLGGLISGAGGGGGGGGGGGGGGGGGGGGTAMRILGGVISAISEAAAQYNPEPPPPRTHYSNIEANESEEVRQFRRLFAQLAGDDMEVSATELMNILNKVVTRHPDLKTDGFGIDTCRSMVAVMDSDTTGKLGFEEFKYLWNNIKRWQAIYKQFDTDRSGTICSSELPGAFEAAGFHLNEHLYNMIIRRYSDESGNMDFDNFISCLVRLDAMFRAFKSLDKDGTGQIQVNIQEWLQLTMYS

[5] = system: HeLa cells; test: Cell viability, XTT assay, HeLa; format: cell-based; settings: Homo sapiens, 48 h, read-out: EC50, concentration inhibiting cell growth by 50%
Protocol: (§5) The cell survival was determined with the XTT assay. Human cells (HeLa from cervical carcinoma and HEK-293 from epithelial kidney) were obtained from Invitrogen (Cergy-Pontoise, France). The cells were grown at 37° C. in DMEM supplemented with 10% fetal bovine serum (Invitrogen) in a humidified atmosphere of 5% CO2 and 95% air.
(§6) 5×10^3 cells in 100 μL culture medium were exposed for 48 h in 96-well plates to increasing concentrations of compounds: 5-100 μM, final concentration of DMSO is 1% (v/v). The culture medium is then replaced by 100 μL of DMEM F12 culture medium devoid of phenol red and containing a mixture of XTT (0.3 mg/mL) and PMS (8.3 nM) (XTT: 2,3-bis[2-methoxy-4-nitro-5-sulfophenyl-2H-tetrazolium-5-carboxyanilide sodium; PMS: phenazine methosulfate, both purchased from Sigma, Saint Quentin Fallavier, France). Cells were then incubated for 3 h at 37° C.
(§7) During this incubation, the mitochondrial deshydrogenases of viable cells hydrolyzed the tetrazolium cycle of XTT, leading to orange formazan crystals soluble in aqueous solution.
(§8) The orange color was measured at 485 nm using a BMG Fluostar microplate reader.
(§9) In control experiments, cells were treated by the vehicule (DMSO) at the same concentration than that used for the inhibitors.
The cytotoxicity activity of drags was expressed as the concentration inhibiting cell growth by 50% (EC50) calculated from the survival curves. […]

[6] = target: human cathepsin B (Homo sapiens, UniProt P07858); test: Selectivity: inhibition of cathepsin B; format: biochemical; settings: 100 μM compound
[7] = target: T3, rabbit reticulocyte 20S proteasome, chymotrypsin-like (CT-L) activity (Oryctolagus cuniculus, UniProt G1T4Q9); test: 20S proteasome chymotrypsin-like (CT-L) activity, Suc-LLVY-AMC hydrolysis; format: biochemical; settings: rabbit 20S proteasome, pH 8, 37° C.
T3 construct: IC50 on chymotrypsin-like activity; other: rabbit 20S proteasome, pH 8, 37° C; Rabbit erythrocyte 20S proteasome was obtained from Boston Biochem, Cambridge, USA
T3 sequence (G1T4Q9 1-263): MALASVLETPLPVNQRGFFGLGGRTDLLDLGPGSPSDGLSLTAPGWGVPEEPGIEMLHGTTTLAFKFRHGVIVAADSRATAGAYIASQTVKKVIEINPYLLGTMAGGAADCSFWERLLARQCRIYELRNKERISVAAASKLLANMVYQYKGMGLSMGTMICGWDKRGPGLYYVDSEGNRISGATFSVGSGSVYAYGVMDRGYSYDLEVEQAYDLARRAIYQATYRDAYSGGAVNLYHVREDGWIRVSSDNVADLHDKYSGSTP
Protocol: as §1, §2, §3, §4

[8] = system: HEK-293 cells; test: Cell viability, XTT assay, HEK-293; format: cell-based; settings: Homo sapiens, HEK293, 48 h, read-out: EC50, concentration inhibiting cell growth by 50%
Protocol: as §5, §6, §7, §8, §9
The cytotoxicity activity of drags was expressed as the concentration inhibiting cell growth by 50% (EC50) calculated from the survival curves. The experimental data are fitted to the following equation, describing the relationship between % survival and drug concentration (C):
% cell survival=100−(Emax×C^n)/(C^n+EC50^n)
where C is the drug concentration; Emax is the maximum drug effect (%); EC50 is the concentration that produces one-half of the maximum effect; and n is the Hill constant, which describes the shape of the curve.

[9] = system: cellular proteasome in HEK-293 cells; test: Inhibition of proteasome in a cell assay: accumulation of ubiquitinylated proteins (Western blot); format: cell-based, Human; settings: 16 h, 10 μM
Protocol: Indeed, if the proteasomes are inhibited, in particular the proteasome 26S, the degradation of ubiquitinalyted proteins should be blocked, and those proteins should accumulate.
240 000 HEK-293 cells were incubated for 16 h, in presence of oxadiazole derivatives at the concentration of 10 μM.
After extraction of the proteins (centrifugation of lysed cells), the concentration of proteins in the sample was determined with the BCA (Bicinchoninic Acid) protein Assay.
3 μg of proteins for each sample were deposited into a SDS-PAGE gel at 8%.

[10] = target: T4, human erythrocyte 20S proteasome, chymotrypsin-like (CT-L) activity (Homo sapiens, UniProt P28074); test: 20S proteasome chymotrypsin-like (CT-L) activity, Suc-LLVY-AMC hydrolysis; format: biochemical; settings: pH 7.5
T4 construct: three activities of human erythrocyte 20S proteasome; from tissue; host or cells: human erythrocytes
Protocol: as §1, §4
(§10) Compounds 24, 25 and 31-35 were tested in duplicate against three activities of human erythrocyte 20S proteasome at 100 and 50 μM in the appropriate buffer (pH 7.5): 20 mM Tris HCl, 10% (v/v) glycerol, 0.01% (w/v) SDS and 2% DMSO (CT-L and PA activities); 20 mM Tris HCl, 10% (v/v) glycerol, and 2% DMSO (T-L activity). The inhibitory activities were analyzed as described above for compounds 1-23.

[11] = target: T5, human erythrocyte 20S proteasome, trypsin-like (T-L) activity (Homo sapiens, UniProt Q99436); test: 20S proteasome trypsin-like (T-L) activity, Boc-LRR-AMC hydrolysis; format: biochemical; set-up: key to Inhibition of trypsin-like activity (NI): NI: No Inhibition; settings: screened at 100 and 50 μM
T5 construct: three activities of human erythrocyte 20S proteasome; from tissue; host or cells: human erythrocytes
Protocol: as §1, §4, §10

[12] = target: T6, human erythrocyte 20S proteasome, post-acid (PA) activity (Homo sapiens, UniProt P28072); test: 20S proteasome post-acid (PA) activity, Z-LLE-βNA hydrolysis; format: biochemical; set-up: key: NI: No Inhibition; settings: screened at 100 and 50 μM
T6 construct: three activities of human erythrocyte 20S proteasome; from tissue; host or cells: human erythrocytes
Protocol: as §1, §4, §10

Sequence of rabbit reticulocyte 20S proteasome, post-acid (PA) activity (G1T235 entry or part of it): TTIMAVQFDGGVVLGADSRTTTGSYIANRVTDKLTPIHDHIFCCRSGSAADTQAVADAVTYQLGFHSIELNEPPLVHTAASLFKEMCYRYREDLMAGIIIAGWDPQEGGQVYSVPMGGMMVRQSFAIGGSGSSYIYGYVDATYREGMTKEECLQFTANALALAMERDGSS

| SMILES | Inhibition of trypsin-like activity (NI) [1] | IC50 [2] [µM] | Inhibition of post-acid activity (NI) [3] | further results |
| --- | --- | --- | --- | --- |
| COc1ccc(OCC(=O)N(Cc2nc(-c3ccc(C)cc3)no2)C(C)C)cc1 [Compound 16] | NI | 2.49 ± 0.91 | NI | Inhibition of human calpain-I (in words) [4]: no inhibition |
| C=CCN(Cc1nc(-c2ccc(OC)cc2)no1)C(=O)COc1ccccc1 [Compound 8] | NI | 1.66 ± 0.12 | NI | inhibition at 100 µM [4]: ≤ 30% |
| Cc1ccc(-c2noc(CN(C(=O)COc3ccc(C(C)C)cc3)C(C)C)n2)cc1 [Compound 1] | NI | ~7 | NI | EC50 [5]: 44 ± 3.8 µM |
| COc1ccc(-c2noc(CN(C(=O)COc3cccc(C)c3)C(C)C)n2)cc1 [Compound 13] | – | 2.33 ± 0.28 | NI | % inhibition (inhibitor concentration) on trypsin-like activity ([1]; 100 μM inhibitor): 28% (100 μM); Inhibition of human cathepsin B (in words) [6]: no inhibition |
| Cc1cccc(-c2noc(CN(C(=O)COc3ccc(C(C)C)cc3)C(C)C)n2)c1 [Compound 2] | NI | ~1 | NI | EC50 [5]: 32 ± 3.6 µM |
| COc1ccc(OCC(=O)N(Cc2nc(-c3ccccc3)no2)C(C)C)cc1 [Compound 6] | – | 1.02 ± 0.16 | NI | Inhibition of human calpain-I (in words) [4]: no inhibition |
| COc1ccc(-c2noc(CN(C(=O)COc3ccccc3)C(C)C)n2)cc1 [Compound 9] | NI | 3.96 ± 0.75 | NI | inhibition at 100 µM [4]: ≤ 30% |
| O=C(Cc1cccc2ccccc12)Nc1cccc(-c2nnc(-c3ccccc3)o2)c1 [Compound 21] | NI | – | – | IC50 [7]: 144 ± 22 µM; inhibition at 100 µM ([3]; 100 μM inhibitor, read-out: % inhibition (inhibitor concentration) on post-acid activity): 22%; EC50 [8]: 26 ± 2.3 µM |
| CC(C)C[C@@H](C=O)NC(=O)[C@H](CC(C)C)NC(=O)[C@H](CC(C)C)NC(=O)OCc1ccccc1 [MG132] (Cbz-Leu-Leu-Leu-aldehyde) | – | – | – | Accumulation of ubiquitinylated proteins (anti-ubiquitin Western blot) [9]: induce an accumulation of ubiquitinalyted proteins |
| CC(C)N(Cc1nc(CCl)no1)C(=O)COc1ccc(Br)cc1 [Compound 31] | – | – | – | IC50 [10]: 2.69 ± 0.22 µM; Inhibition of trypsin-like activity (NI) [11]: NI; Inhibition of post-acid activity (NI) [12]: NI; EC50 [8]: 16.1 ± 0.5 µM |
| C=CCOc1ccc(C(=O)N(Cc2nc(-c3ccc(OC)c(OC)c3)no2)C(C)C)cc1 [Compound 19] | – | – | NI | Activation × of trypsin-like activity ([1]; 100 μM compound, fold activation): Activation × 11.5 (100 μM); IC50 [7]: 3.51 ± 0.12 µM; EC50 [8]: 39.2 ± 2 µM |
